Assay results published in patent US20260070917A1, “CYCLIN DEPENDENT KINASE DEGRADERS AND METHODS OF USE THEREOF” (Differentiated Therapeutics Inc, priority 2023, published 2026).
Where two headings read alike, the source gives them in different places.

Tests used:
Assay type in all cases: cell-based
CCNE1 [1] = target: T1, CCNE1 (Homo sapiens, UniProt P24864); assay: HiBit Assay Protocol for CCNE1 (HIBIT protein quantification, degradation); conditions: HEK293-CCNE1-Hibit cells, compound treatment for 6 hours
T1 construct: host or cells: HEK293-CCNE1-Hibit
Summary of the method: (§1)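 HEK293 cells expressing HiBiT-tagged CCNE1 were seeded overnight, then treated 6 h with a 3-fold, 10-point compound dilution series. HiBiT levels were read by lytic LgBiT luminescence and normalised to DMSO-only (high) and medium-only (low) controls. DC50 was derived by curve fitting.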

CCNE1 [2] = target: T2, CCNE1 (Homo sapiens, UniProt P24864+P24941); assay: as above; conditions: HEK293-CCNE1-Hibit cells, compound treatment for 6 hours, ABS DC50
T2 construct: host or cells: HEK293-CCNE1-Hibit
Summary of the method: as §1

CDK9 = target: T3, CDK9 (Homo sapiens, UniProt P50750); assay: HiBit Assay Protocol for CDK9 (HIBIT protein quantification, degradation); conditions: HEK293-CDK9-Hibit cells, compound treatment for 6 hours; for Dmax: read-out: CDK9 HIBIT Protein Quantification Maximum; for DC50: ABS DC50
T3 construct: host or cells: HEK293-CDK9-Hibit
Summary of the method: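 HEK293 cells carrying HiBiT-tagged CDK9 treated 6 h with compounds in a 3-fold, 10-point dilution series. CDK9 level read by lytic Nano-Glo HiBiT/LgBiT luminescence and normalized to 0.1% DMSO (high) and medium-only (low) controls. DC50 from curve fitting.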

CDK2 = target: T4, CDK2 (Homo sapiens, UniProt P24941); assay: HiBit Assay Protocol for CDK2 (HIBIT protein quantification, degradation); conditions: HEK293-CDK2-Hibit cells, compound treatment for 6 hours; for DC50: ABS DC50
T4 construct: host or cells: HEK293-CDK2-Hibit
Summary of the method: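 HEK293 cells expressing HiBiT-tagged CDK2 were seeded overnight, then treated 6 h with a 3-fold, 10-point compound dilution series. CDK2 levels were read as luminescence after lytic HiBiT/LgBiT detection, normalised to DMSO-only and medium-only controls, and DC50 derived by curve fitting.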

T1 sequence (P24864 whole entry): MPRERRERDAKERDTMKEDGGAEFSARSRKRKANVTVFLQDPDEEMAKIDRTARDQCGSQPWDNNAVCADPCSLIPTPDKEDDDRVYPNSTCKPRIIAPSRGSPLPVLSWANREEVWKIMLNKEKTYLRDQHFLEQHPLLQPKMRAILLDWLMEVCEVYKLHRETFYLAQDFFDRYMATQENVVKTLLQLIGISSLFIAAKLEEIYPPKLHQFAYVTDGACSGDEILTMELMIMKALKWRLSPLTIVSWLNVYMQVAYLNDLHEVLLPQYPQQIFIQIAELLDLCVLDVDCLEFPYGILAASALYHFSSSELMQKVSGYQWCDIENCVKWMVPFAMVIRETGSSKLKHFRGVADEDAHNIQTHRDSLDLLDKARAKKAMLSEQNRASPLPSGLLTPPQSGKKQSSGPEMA
T2 sequence (P24864 whole entry, one chain of several): as the sequence (P24864 whole entry) above
T3 sequence (P50750 whole entry): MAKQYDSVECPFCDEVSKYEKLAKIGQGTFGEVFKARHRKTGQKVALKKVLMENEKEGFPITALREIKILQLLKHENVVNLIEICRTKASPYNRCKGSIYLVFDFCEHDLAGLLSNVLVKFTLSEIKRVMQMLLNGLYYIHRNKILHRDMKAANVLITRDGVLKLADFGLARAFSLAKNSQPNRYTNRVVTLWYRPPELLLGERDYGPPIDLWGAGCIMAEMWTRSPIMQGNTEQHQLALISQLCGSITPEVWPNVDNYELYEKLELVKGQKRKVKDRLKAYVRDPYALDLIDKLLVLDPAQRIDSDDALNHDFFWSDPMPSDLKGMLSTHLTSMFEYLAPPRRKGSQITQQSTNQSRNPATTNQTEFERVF

Row | SMILES | CCNE1 HIBIT Protein Quantification Maximum (CCNE1 [1]) [%] | DC50 (CCNE1 [2]) [nM] | Dmax (CDK9; 6 h) [%] | DC50 (CDK9) [nM] | CDK2 HIBIT Protein Quantification Maximum (CDK2) [%] | DC50 (CDK2) [nM] | Dmax (CDK9) [%]
1 | C[C@@H](c1cccc(S(=O)(=O)N2CCC(Nc3ncc4c(n3)N([C@@H]3CCC[C@@H](O)C3)C(=O)C43CC3)CC2)c1)N1CCC(c2ccc3c(N4CCC(=O)NC4=O)nn(C)c3c2)CC1 (single isomer, unassigned) [Compound 152] | 53 | 23.6 | 52 | 2170 | 88 | 4.22 | –
2 | CC(c1cc(S(=O)(=O)N2CC[C@H](Nc3ncc4c(n3)N([C@@H]3CCC[C@@H](O)C3)C(=O)C43CC3)[C@H](F)C2)ccc1F)N1CCC(c2ccc3c(N4CCC(=O)NC4=O)nn(C)c3c2)CC1 (single isomer, unassigned) [Compound 200, 1-(6-{1-[(1R*)-1-{2-Fluoro-5-[(3R,4S)-3-fluoro-4-{7′-[(1R,3R)-3-hydroxycyclohexyl]-6′-oxospiro[cyclopropane-1,5′-pyrrolo[2,3-d]pyrimidin]-2′-ylamino}piperidin-1-ylsulfonyl]phenyl}ethyl]piperidin-4-yl}-1-methylindazol-3-yl)-1,3-diazinane-2,4-dione] | 61 | 9.88 | 13 | – | 89 | 3.81 | –
3 | Cn1nc(N2CCC(=O)NC2=O)c2cccc(C3CCN(Cc4cccc(S(=O)(=O)N5CCC(Nc6ncc7c(n6)N([C@H]6CCC[C@H](O)C6)C(=O)C76CC6)CC5)c4)CC3)c21 (stereo in doubt) [Compound 146, 1-[7-(1-{[3-(4-{7′-[(1S,3S)-3-hydroxycyclohexyl]-6′-oxospiro[cyclopropane-1,5′-pyrrolo[2,3-d]pyrimidin]-2′-ylamino}piperidin-1-ylsulfonyl)phenyl]methyl}piperidin-4-yl)-1-methylindazol-3-yl]-1,3-diazinane-2,4-dione] | 82 | 36.2 | – | – | 76 | 30 | 4
4 | C[C@H]1CCC[C@H]1N1C(=O)C2(CC2)c2cnc(NC3CCN(S(=O)(=O)N(C)CCCN4CCC(c5cccc6c5n(C)c(=O)n6C5CCC(=O)NC5=O)CC4)CC3)nc21 (stereo partly drawn) [Compound 13, N-(3-{4-[1-(2,6-Dioxopiperidin-3-yl)-3-methyl-2-oxo-1,3-benzodiazol-4-yl]piperidin-1-yl}propyl)-N-methyl-4-{7′-[(1R,2S)-2-methylcyclopentyl]-6′-oxospiro[cyclopropane-1,5′-pyrrolo[2,3-d]pyrimidin]-2′-ylamino}piperidine-1-sulfonamide] | 52.8 | 17.6 | – | – | 79 | 17.3 | –
5 | CC1CCCC1N1C(=O)C2(CC2)c2cnc(NC3CCN(S(=O)(=O)N4CCC5(CCCN5C(=O)CCCCCc5cccc6c5n(C)c(=O)n6C5CCC(=O)NC5=O)C4)CC3)nc21 (stereo not shown) [Compound 36] | 59 | 515 | 49 | – | 46 | – | –
6 | CN(CCCN1CCC(c2cccc3c2n(C)c(=O)n3C2CCC(=O)NC2=O)CC1)S(=O)(=O)c1ccc(Nc2ncc3c(n2)N([C@@H]2CCC[C@@H](O)C2)C(=O)C32CC2)cc1 (stereo partly drawn) [Compound 116, N-(3-(4-(1-(2,6-dioxopiperidin-3-yl)-3-methyl-2-oxo-2,3-dihydro-1H-benzo[d]imidazol-4-yl)piperidin-1-yl)propyl)-4-((7′-((1R,3R)-3-hydroxycyclohexyl)-6′-oxo-6′,7′-dihydrospiro[cyclopropane-1,5′-pyrrolo[2,3-d]pyrimidin]-2′-yl)amino)-N-methylbenzenesulfonamide] | 75 | 23.2 | 81 | 74.9 | 86 | 14 | –
7 | CC1CCCC1N1C(=O)C2(CC2)c2cnc(Nc3ccc(S(=O)(=O)N(C)CCCN4CCC(c5cccc6c5n(C)c(=O)n6C5CCC(=O)NC5=O)CC4)cc3)nc21 (stereo not shown) [Compound 117, N-(3-(4-(1-(2,6-dioxopiperidin-3-yl)-3-methyl-2-oxo-2,3-dihydro-1H-benzo[d]imidazol-4-yl)piperidin-1-yl)propyl)-N-methyl-4-((7′-(2-methylcyclopentyl)-6′-oxo-6′,7′-dihydrospiro [cyclopropane-1,5′-pyrrolo[2,3-d]pyrimidin]-2′-yl)amino)benzenesulfonamide] | 64 | 7.43 | 65 | 21.8 | 78 | 10 | –
8 | CC(c1cccc(S(=O)(=O)N2CC[C@H](Nc3ncc4c(n3)N([C@@H]3CCC[C@@H](O)C3)C(=O)C43CC3)[C@H](F)C2)c1)N1CCN(c2ccc3c(N4CCC(=O)NC4=O)nn(C)c3c2)C[C@H]1C (stereo partly drawn) [Compound 195, 1-(6-((3R)-4-(1-(3-(((3R,4S)-3-Fluoro-4-((7′-((1R,3R)-3-hydroxycyclohexyl)-6′-oxo-6′,7′-dihydrospiro[cyclopropane-1,5′-pyrrolo[2,3-d]pyrimidin]-2′-yl)amino)piperidin-1-yl)sulfonyl)phenyl)ethyl)-3-methylpiperazin-1-yl)-1-methyl-1H-indazol-3-yl)dihydropyrimidine-2,4(1H,3H)-dione] | 41 | – | 21 | – | 92 | 5.54 | –
9 | C[C@H](c1cccc(S(=O)(=O)N2CC[C@H](Nc3ncc4c(n3)N([C@@H]3CCC[C@@H](O)C3)C(=O)C43CC3)[C@H](F)C2)c1)N1CCN(c2ccc3c(N4CCC(=O)NC4=O)nn(C)c3c2)CC1 [Compound 196] | 36 | – | 14 | – | 93 | 12 | –
10 | C[C@@H](c1cccc(S(=O)(=O)N2CC[C@H](Nc3ncc4c(n3)N([C@@H]3CCC[C@@H](O)C3)C(=O)C43CC3)[C@H](F)C2)c1)N1CCN(c2ccc3c(N4CCC(=O)NC4=O)nn(C)c3c2)CC1 [Compound 197] | 33 | – | 8 | – | 91 | 10.5 | –
11 | C[C@H](c1cccc(S(=O)(=O)N2CC[C@H](Nc3ncc4c(n3)N([C@@H]3CCC[C@@H](O)C3)C(=O)C43CC3)[C@H](F)C2)c1)N1CCC(c2ccc3c(N4CCC(=O)NC4=O)nn(C)c3c2)CC1 [Compound 198] | 40 | – | 2 | – | 80 | 2.48 | –
12 | CC(C)[C@@H]1CN([C@H](C)c2cccc(S(=O)(=O)N3CC[C@H](Nc4ncc5c(n4)N([C@@H]4CCC[C@@H](O)C4)C(=O)C54CC4)[C@H](F)C3)c2)CCN1c1ccc2c(N3CCC(=O)NC3=O)nn(C)c2c1 [Compound 204] | 33 | – | 15 | – | 85 | 10.4 | –
13 | CC(C)[C@@H]1CN([C@@H](C)c2cccc(S(=O)(=O)N3CC[C@H](Nc4ncc5c(n4)N([C@@H]4CCC[C@@H](O)C4)C(=O)C54CC4)[C@H](F)C3)c2)CCN1c1ccc2c(N3CCC(=O)NC3=O)nn(C)c2c1 [Compound 205] | 38 | – | 14 | – | 88 | 13.1 | –
14 | C[C@@H](c1cccc(S(=O)(=O)N2CC[C@H](Nc3ncc4c(n3)N([C@@H]3CCC[C@@H](O)C3)C(=O)C43CC3)[C@H](F)C2)c1)N1CCN(c2ccc3c(N4CCC(=O)NC4=O)nn(C)c3c2)[C@@H](C)C1 [Compound 206] | 43 | – | 13 | – | 91 | 10.9 | –
15 | C[C@H](c1cccc(S(=O)(=O)N2CC[C@H](Nc3ncc4c(n3)N([C@@H]3CCC[C@@H](O)C3)C(=O)C43CC3)[C@H](F)C2)c1)N1CCN(c2ccc3c(N4CCC(=O)NC4=O)nn(C)c3c2)[C@@H](C)C1 [Compound 207] | 38 | – | 23 | – | 90 | 3.5 | –
16 | C[C@H](c1cccc(S(=O)(=O)N2CC[C@H](Nc3ncc4c(n3)N([C@@H]3CCC[C@@H](O)C3)C(=O)C43CC3)[C@H](F)C2)c1)N1CCN(c2ccc3c(N4CCC(=O)NC4=O)nn(C)c3c2)[C@H](C)C1 [Compound 208] | 45 | – | 14 | – | 91 | 4.62 | –
17 | C[C@@H]1CN([C@@H](C)c2cccc(S(=O)(=O)N3CC[C@H](Nc4ncc5c(n4)N([C@@H]4CCC[C@@H](O)C4)C(=O)C54CC4)[C@H](F)C3)c2)CCN1c1ccc2c(N3CCC(=O)NC3=O)nn(C)c2c1 [Compound 209] | 43 | – | 16 | – | 91 | 12.7 | –
